We go through one molecule from patent US20230293578A1, “TREATMENT OF BACTERIAL VAGINOSIS” (priority 2020, published 2023).

This assay has as its system G. vag strain 14.2. The experiment in a line: antibiotic synergy testing, checkerboard cross dilution method in broth cultures. It is filed as cell-based, Gardnerella vaginalis. As to conditions: Gardnerella vaginalis, 14.2; 32 mg/mL clindamycin, 24 hr; read-out: growth inhibited.

`CCC[C@@H]1C[C@@H](C(=O)N[C@@H]([C@H]2O[C@H](SC)[C@H](O)[C@@H](O)[C@H]2O)[C@H](C)Cl)N(C)C1` [clindamycin, reference compound]: the inhibition at 32000 µg/mL turned out to be 27.4%.
